From US11001802B2, “Surface of a vessel with polystyrene, nitrogen, oxygen and a static sessile contact angle for attachment and cultivation of cells” (Nunc A/S, priority 2008, dated 2021)

Legend:
[1] = system: human ES cell line H9; assay: Attachment and colony formation of H9 human ES cells on surface modified plates with Rho kinase inhibitors (crystal violet, image analysis); format: cell-based
Procedure: Human ES cells of the line H9, at passage 40 were maintained in MEF conditioned media on Nunclon Delta™ plates treated with a 1:30 dilution of growth factor reduced Matrigel™, prior to study. Cells were dissociated from the surface for passage by 1 mg/ml collagenase dissociation or by manual scraping.
These cells were then seeded onto surface modified plates 2, 3, 4 and 13 (12-well format) in the presence of increasing amounts one of the following Rho Kinase inhibitors: Y-27632 (from Sigma, St. Louis, Mo. or EMD, San Diego, Calif.), Fasudil (Sigma), or Hydroxyfasudil (Sigma), and maintained for 3 days, each day replacing the media and compound. At the end of day three, media was removed and the plates were stained with Crystal Violet (0.5% in water) to visualize colonies.
It was attempted to determine the optimal dose of Y-27632 to promote cell binding, by treating cells with a range of plating concentrations of Y-27632 for the first day of culture. After the first day in culture cells were treated on subsequent days with a 10 μM concentration of Y-27632. It was observed that the maximal concentration to stimulate attachment and growth of ES cells was 10 μM (FIG. 12) and that this occurred on surface modified plates 2, 3, 4, 13 and CellBIND™ (Corning, Corning, N.Y.).
The effect of treating the cells continuously with a single dose of Y-27632 on attachment and growth was also tested. The cells were dosed with 0, 1, 4, or 10 μM Y-27632 for 4 days. Some binding was observed on surface modified plates without treatment (0 μM), however the optimal concentration to stimulate attachment and growth of ES cells was 10 μM Y-27632 (Table 4) on surface modified plates 2, 3, 4, 13.

[2] = system: H9 human ES cells; assay: Adherence of H9 human ES cells to surface modified plates with increasing Y-27632, crystal violet (Example 12); format: cell-based
Procedure: Passage 49 H9 human ES cells previously plated to 1:30 Matrigel™ treated plasticware and grown in MEF conditioned media supplemented with 8 ng/ml of bFGF were LIBERASE treated and plated to surface modified plates in MEF conditioned media supplemented with 8 ng/ml of bFGF and not otherwise treated or supplemented with increasing concentrations of Y-27632. 24 and 48 hours after plating H9 human ES cells to surface modified plates small colonies could be observed on Surfaces 2-4 and 13, and CellBIND™, and Primaria™ (cat. no. 353846, Becton Dickinson, Franklin Lakes, N.J.) with crystal violet stain (FIGS. 24-26). Furthermore, the adherence of H9 human ES cell colonies was improved by the addition of Y-27632 and the effect was dose responsive (FIG. 25).

[3] = system: H9 human ES cells; assay: H9 human ES cell attachment to surface Nunc4 in defined media mTeSR (Example 14); format: cell-based; conditions: 20 micromolar Y-27632
Procedure: Passage 49 H9 human ES cells were passaged twice in the define media, mTeSR™, on Matrigel™-treated plasticware. The cells were then LIBERASE treated and plated onto the surface modified plate Nunc4 in mTeSR™ media. Cells were either plated in media with or without 20 micromolar Y-27632. Wells were also treated with various proteins for 30 minutes prior to seeding cells (no treatment, 0.1% gelatin, 2% BSA, 0.34 mg/ml rat Collagen I, 1:1000 Matrigel™, or 1:5000 Matrigel™) to determine if these proteins could promote human ES cell adhesion in defined media with or without Y-27632 (FIG. 28). […] However, when 20 micromolar Y-27632 was added to define mTeSR™ media, human ES cells adhered to surface Nunc4. Furthermore, this adherence was equivalent in untreated wells and wells treated with 0.1% gelatin, 2% BSA, and 0.34 mg/ml rat Collagen I. There was a modest increase in human ES cell attachment in wells with low concentrations of Matrigel™ (1:1000 and 1:5000 dilutions), however these concentrations of Matrigel™ were insufficient to promote adhesion in the absence of Y-27632.

[4] = system: HEK293 cells; assay: HEK293 attachment and growth, culture confluence by IncuCyte Plus (Examples 20, 21); format: cell-based, human
Procedure: HEK293 cells were maintained in EMEM (Lonza) containing 10% FBS (Lonza). Cells were passaged at 70-80% confluence using Trypsin/EDTA for dissociation, and seeded at c 2.0×10^4 cells/cm^2 in 75-cm^2 flasks with Nunclon Delta™ surface (Thermo Fisher Scientific, Roskilde, Denmark).
EMEM (500 μl) supplemented with 10% FBS containing 1.0, 5.0, 10, 15 or 20 μM Y-27632 (Sigma Chemical Co.), or 0.4, 1.2, 1.6, 2.4 or 2.8 μM H-1152 (Calbiochem, EMD Chemicals Inc., Darmstadt, Germany) was dispensed in Multidish 24-well plates with either Surface 4 or a non-treated (but gamma irradiated; 25 kGy) polystyrene surface. Another 500 μl of EMEM supplemented with 10% FBS and containing HEK293 cells were added to the wells (2.0×10^4 cells/cm^2). The cultures were placed in an IncuCyte™ Plus (Essen Instruments, Michigan, USA) and incubated at 37° C. in a humidified atmosphere of 5% CO2 in air. The IncuCyte™ Plus is an automated imaging platform, configured to fit inside a CO2 incubator, and designed to provide kinetic, non-invasive live cell imaging by acquiring phase contrast images of the cells at user-defined times and locations within the cultures. The primary metric of the instrument is culture confluence, that is, the fraction of the surface that is covered by cells. The HEK293 cells were incubated for 72 hours without manipulations, and images were collected every two hours at 9 positions in triplicate cultures. Culture confluence was determined using the IncuCyte™ Plus software (v. 3.4.1.25966).
EMEM (1.0 ml) supplemented with 10% FBS containing 0.4, 0.8, 1.2, 1.6, 2.0, 2.4 or 2.8 μM H-1152 was dispensed in Multidish 12-well plates with Surface 4. Another 1.0 ml of EMEM supplemented with […] and containing HEK293 cells were added to the wells (4.0×10^4 cells/cm^2). The cultures were placed in an IncuCyte™ Plus, and incubated at 37° C. in a humidified atmosphere of 5% CO2 in air for 42 hours (images were collected every 6 hours). One ml of culture medium was then removed by pipetting, and 1.0 ml EMEM supplemented with 10% FBS containing 0.2, 0.4, 0.6, 0.8, 1.0, 1.2 and 1.4 μM H-1152 was added. The cultures were placed in the IncuCyte™ Plus again, and images were collected every hour over the following 25 hours. Images were collected at 9 positions in triplicate cultures, and culture confluence was determined using the IncuCyte™ Plus software. Images from the IncuCyte™ Plus collected at specific positions in HEK293 cell cultures grown in the absence or presence of H-1152 (0.6 μM) was retrieved and presented as phase-contrast micrographs for the comparison of HEK293 culture morphology at the following time points: start of incubation (0 hours), just before medium change (42 hours), 1 hour after the medium change (43 hours), and, finally, after 52 hours of incubation.

C[C@@H](N)[C@H]1CC[C@H](C(=O)Nc2ccncc2)CC1 [Surface Y-27632, Y-27632]
attachment of ES cell colonies by day three ([1]; H9 on surface modified plates 2, 3, 4 and 13, crystal violet, Y-27632 at 10 μM): Best results | cell proliferation ([1]; Matrigel treated plates with or without 10 μM Y-27632 (FIG. 14)): grow at a similar density as untreated cells | optimal concentration to stimulate attachment and growth of ES cells ([1]; continuous 0, 1, 4 or 10 μM for 4 days, plates 2, 3, 4, 13): 10 µM | maximal concentration to stimulate attachment and growth of ES cells ([1]; range of plating concentrations first day, then 10 μM, plates 2, 3, 4, 13 and CellBIND): 10 µM | human ES cell attachment versus untreated ([2]; 1 to 2 micromolar Y-27632): minimal improvement | adherence of human ES cells to surface modified plates ([2]; 4 to 20 micromolar Y-27632): promoted adherence | adherence of human ES cells in defined mTeSR media [3]: adhered | attachment and growth of HEK293 cells ([4]; Surface 4, increasing concentration): enhances attachment and growth | growth and attachment of HEK293 cells ([4]; non-treated polystyrene surface, 10 μM Y-27632, 0.6-1.2 μM H-1152): slightly enhanced
